Minimal effective concentration data for 14 compounds are collected here from US11331369B2, “Endoparasitic depsipeptides” (Zoetis Services LLC, priority 2017, dated 2022).

Structures are written as SMILES.

This assay has as its system microfilariae of Dirofilaria immitis. In words: Dirofilaria immitis, Microfilaria (DiMF) In vitro Assay. The class given is cell-based. The following applies: 72 h, read-out: DiMF Minimum Effective Dose (MED), approximately 72 hours incubation, microfilariae assessed for survival or paralysis.

In the case of `CC(C)C[C@H]1C(=O)O[C@H](Cc2ccc(Cn3ccnc3CO)cc2)C(=O)N(C)[C@@H](CC(C)C)C(=O)O[C@H](C)C(=O)N(C)[C@@H](CC(C)C)C(=O)O[C@H](Cc2ccc(Cn3ccnc3CO)cc2)C(=O)N(C)[C@@H](CC(C)C)C(=O)O[C@H](C)C(=O)N1C` [Example 6-16, (3S,6R,9S,12R,15S,18R,21S,24R)-6,18-bis(4-((2-(hydroxymethyl)-1H-imidazol-1-yl)methyl)benzyl)-3,9,15,21-tetraisobutyl-4,10,12,16,22,24-hexamethyl-1,7,13,19-tetraoxa-4,10,16,22-tetraazacyclotetracosan-2,5,8,11,14,17,20,23-octaone], the minimal effective concentration was 0.001 to 0.01 µM.
The same measure for `CC(C)C[C@H]1C(=O)O[C@H](Cc2ccc(Cn3ccc(C(C)(C)C)n3)cc2)C(=O)N(C)[C@@H](CC(C)C)C(=O)O[C@H](C)C(=O)N(C)[C@@H](CC(C)C)C(=O)O[C@H](Cc2ccccc2)C(=O)N(C)[C@@H](CC(C)C)C(=O)O[C@H](C)C(=O)N1C` [Example 2-72, (3S,6R,9S,12R,15S,18R,21S,24R)-6-benzyl-18-(4-((3-(tert-butyl)-1H-pyrazol-1-yl)methyl)benzyl)-3,9,15,21-tetraisobutyl-4,10,12,16,22,24-hexamethyl-1,7,13,19-tetraoxa-4,10,16,22-tetraazacyclotetracosan-2,5,8,11,14,17,20,23-octaone]: 0.01 to 0.1 µM; for `CC(C)C[C@H]1C(=O)O[C@H](Cc2ccc(Cn3cc4ccccc4n3)cc2)C(=O)N(C)[C@@H](CC(C)C)C(=O)O[C@H](C)C(=O)N(C)[C@@H](CC(C)C)C(=O)O[C@H](Cc2ccc(Cn3cc4ccccc4n3)cc2)C(=O)N(C)[C@@H](CC(C)C)C(=O)O[C@H](C)C(=O)N1C` [Example 9-35, (3S,6R,9S,12R,15S,18R,21S,24R)-6,18-bis(4-((2H-indazol-2-yl)methyl)benzyl)-3,9,15,21-tetraisobutyl-4,10,12,16,22,24-hexamethyl-1,7,13,19-tetraoxa-4,10,16,22-tetraazacyclotetracosan-2,5,8,11,14,17,20,23-octaone]: 0.01 to 0.1 µM; for `CC(C)C[C@H]1C(=O)O[C@H](Cc2ccc(Cn3ccnc3)cc2)C(=O)N(C)[C@@H](CC(C)C)C(=O)O[C@H](C)C(=O)N(C)[C@@H](CC(C)C)C(=O)O[C@H](Cc2ccccc2)C(=O)N(C)[C@@H](CC(C)C)C(=O)O[C@H](C)C(=O)N1C` [Example 8-2, (3S,6R,9S,12R,15S,18R,21S,24R)-6-benzyl-18-[[4-(imidazol-1-ylmethyl)phenyl]methyl]-3,9,15,21-tetraisobutyl-4,10,12,16,22,24-hexamethyl-1,7,13,19-tetraoxa-4,10,16,22-tetrazacyclotetracosane-2,5,8,11,14,17,20,23-octaone]: 0.01 to 0.1 µM.
The same measure for `CC(C)C[C@H]1C(=O)O[C@H](Cc2ccc(CN3CCCOC3=O)cc2)C(=O)N(C)[C@@H](CC(C)C)C(=O)O[C@H](C)C(=O)N(C)[C@@H](CC(C)C)C(=O)O[C@H](Cc2ccccc2)C(=O)N(C)[C@@H](CC(C)C)C(=O)O[C@H](C)C(=O)N1C` [Example 10-25, (3S,6R,9S,12R,15S,18R,21S,24R)-6-benzyl-3,9,15,21-tetraisobutyl-4,10,12,16,22,24-hexamethyl-18-(4-((2-oxo-1,3-oxazinan-3-yl)methyl)benzyl)-1,7,13,19-tetraoxa-4,10,16,22-tetraazacyclotetracosan-2,5,8,11,14,17,20,23-octaone]: 0.01 to 0.1 µM; for `CC(C)C[C@H]1C(=O)O[C@H](Cc2ccc(Cn3cc4c(n3)CCC4)cc2)C(=O)N(C)[C@@H](CC(C)C)C(=O)O[C@H](C)C(=O)N(C)[C@@H](CC(C)C)C(=O)O[C@H](Cc2ccc(Cn3cc4c(n3)CCC4)cc2)C(=O)N(C)[C@@H](CC(C)C)C(=O)O[C@H](C)C(=O)N1C` [Example 9-42, (3S,6R,9S,12R,15S,18R,21S,24R)-6,18-bis[[4-(5,6-dihydro-4H-cyclopenta[c]pyrazol-2-ylmethyl)phenyl]methyl]-3,9,15,21-tetraisobutyl-4,10,12,16,22,24-hexamethyl-1,7,13,19-tetraoxa-4,10,16,22-tetrazacyclotetracosane-2,5,8,11,14,17,20,23-octaone]: 0.01 to 0.1 µM.
The same measure for `CCOc1cn(Cc2ccc(C[C@H]3OC(=O)[C@H](CC(C)C)N(C)C(=O)[C@@H](C)OC(=O)[C@H](CC(C)C)N(C)C(=O)[C@@H](Cc4ccc(Cn5cc(OCC)c(C)n5)cc4)OC(=O)[C@H](CC(C)C)N(C)C(=O)[C@@H](C)OC(=O)[C@H](CC(C)C)N(C)C3=O)cc2)nc1C` [Example 1b-198, (3S,6R,9S,12R,15S,18R,21S,24R)-6,18-bis[[4-[(4-ethoxy-3-methyl-pyrazol-1-yl)methyl]phenyl]methyl]-3,9,15,21-tetraisobutyl-4,10,12,16,22,24-hexamethyl-1,7,13,19-tetraoxa-4,10,16,22-tetrazacyclotetracosane-2,5,8,11,14,17,20,23-octaone]: 0.01 to 0.1 µM.
For `CCOc1cc(CC)nn1Cc1ccc(C[C@H]2OC(=O)[C@H](CC(C)C)N(C)C(=O)[C@@H](C)OC(=O)[C@H](CC(C)C)N(C)C(=O)[C@@H](Cc3ccc(Cn4nc(CC)cc4OCC)cc3)OC(=O)[C@H](CC(C)C)N(C)C(=O)[C@@H](C)OC(=O)[C@H](CC(C)C)N(C)C2=O)cc1` [Example 1b-169, (3S,6R,9S,12R,15S,18R,21S,24R)-6,18-bis(4-((5-ethoxy-3-ethyl-1H-pyrazol-1-yl)methyl)benzyl)-3,9,15,21-tetraisobutyl-4,10,12,16,22,24-hexamethyl-1,7,13,19-tetraoxa-4,10,16,22-tetraazacyclotetracosan-2,5,8,11,14,17,20,23-octaone], the minimal effective concentration is 0.01 to 0.1 µM.
Then `CNC(=O)c1cnn(Cc2ccc(C[C@H]3OC(=O)[C@H](CC(C)C)N(C)C(=O)[C@@H](C)OC(=O)[C@H](CC(C)C)N(C)C(=O)[C@@H](Cc4ccc(Cn5cc(C(=O)NC)cn5)cc4)OC(=O)[C@H](CC(C)C)N(C)C(=O)[C@@H](C)OC(=O)[C@H](CC(C)C)N(C)C3=O)cc2)c1` [Example 1b-53, 1,1′-(((((2R,5S,8R,11 S,14R,17S,20R,23S)-5,11,17,23-tetraisobutyl-4,8,10,16,20,22-hexamethyl-3,6,9,12,15,18,21,24-octaoxo-1,7,13,19-tetraoxa-4,10,16,22-tetraazacyclotetracosane-2,14-diyl)bis(methylene))bis(4,1-phenylene))bis(methylene))bis(N-methyl-1H-pyrazole-4-carboxamide)], with 0.01 to 0.1 µM; and `CC(C)C[C@H]1C(=O)O[C@H](Cc2ccc(Cn3cc(-c4ccccn4)cn3)cc2)C(=O)N(C)[C@@H](CC(C)C)C(=O)O[C@H](C)C(=O)N(C)[C@@H](CC(C)C)C(=O)O[C@H](Cc2ccc(Cn3cc(-c4ccccn4)cn3)cc2)C(=O)N(C)[C@@H](CC(C)C)C(=O)O[C@H](C)C(=O)N1C` [Example 1b-71, (3S,6R,9S,12R,15S,18R,21S,24R)-3,9,15,21-tetraisobutyl-4,6,10,16,18,22-hexamethyl-12,24-bis(4-((4-(pyridin-2-yl)-1H-pyrazol-1-yl)methyl)benzyl)-1,7,13,19-tetraoxa-4,10,16,22-tetraazacyclotetracosan-2,5,8,11,14,17,20,23-octaone], with 0.01 to 0.1 µM.
Then `Cc1nn(Cc2ccc(C[C@H]3OC(=O)[C@H](CC(C)C)N(C)C(=O)[C@@H](C)OC(=O)[C@H](CC(C)C)N(C)C(=O)[C@@H](Cc4ccc(Cn5cc(C#N)c(C)n5)cc4)OC(=O)[C@H](CC(C)C)N(C)C(=O)[C@@H](C)OC(=O)[C@H](CC(C)C)N(C)C3=O)cc2)cc1C#N` [Example 1b-135, 1,1′-(((((2R,5S,8R,11S,14R,17S,20R,23S)-5,11,17,23-tetraisobutyl-4,8,10,16,20,22-hexamethyl-3,6,9,12,15,18,21,24-octaoxo-1,7,13,19-tetraoxa-4,10,16,22-tetraazacyclotetracosane-2,14-diyl)bis(methylene))bis(4,1-phenylene))bis(methylene))bis(3-methyl-1H-pyrazole-4-carbonitrile)], with 0.001 to 0.01 µM.
The same measure for `Cc1ncn(Cc2ccc(C[C@H]3OC(=O)[C@H](CC(C)C)N(C)C(=O)[C@@H](C)OC(=O)[C@H](CC(C)C)N(C)C(=O)[C@@H](Cc4ccccc4)OC(=O)[C@H](CC(C)C)N(C)C(=O)[C@@H](C)OC(=O)[C@H](CC(C)C)N(C)C3=O)cc2)c1C` [Example 8-11, (3S,6R,9S,12R,15S,18R,21S,24R)-6-benzyl-18-(4-((4,5-dimethyl-1H-imidazol-1-yl)methyl)benzyl)-3,9,15,21-tetraisobutyl-4,10,12,16,22,24-hexamethyl-1,7,13,19-tetraoxa-4,10,16,22-tetraazacyclotetracosan-2,5,8,11,14,17,20,23-octaone]: 0.01 to 0.1 µM.
Take `CCOC(=O)c1cnn(Cc2ccc(C[C@H]3OC(=O)[C@H](CC(C)C)N(C)C(=O)[C@@H](C)OC(=O)[C@H](CC(C)C)N(C)C(=O)[C@@H](Cc4ccccc4)OC(=O)[C@H](CC(C)C)N(C)C(=O)[C@@H](C)OC(=O)[C@H](CC(C)C)N(C)C3=O)cc2)c1` [Example 2-12, ethyl 1-(4-(((2R,5S,8R,11S,14R,17S,20R,23S)-14-benzyl-5,11,17,23-tetraisobutyl-4,8,10,16,20,22-hexamethyl-3,6,9,12,15,18,21,24-octaoxo-1,7,13,19-tetraoxa-4,10,16,22-tetraazacyclotetracosan-2-yl)methyl)benzyl)-1H-pyrazole-4-carboxylate]: the minimal effective concentration is 0.001 to 0.01 µM.
Then `CC(C)C[C@H]1C(=O)O[C@H](Cc2ccc(CN3CCSc4ccccc43)cc2)C(=O)N(C)[C@@H](CC(C)C)C(=O)O[C@H](C)C(=O)N(C)[C@@H](CC(C)C)C(=O)O[C@H](Cc2ccccc2)C(=O)N(C)[C@@H](CC(C)C)C(=O)O[C@H](C)C(=O)N1C` [Example 10-41, (3S,6R,9S,12R,15S,18R,21S,24R)-6-benzyl-18-(4-((2,3-dihydro-4H-benzo[b][1,4]thiazin-4-yl)methyl)benzyl)-3,9,15,21-tetraisobutyl-4,10,12,16,22,24-hexamethyl-1,7,13,19-tetraoxa-4,10,16,22-tetraazacyclotetracosan-2,5,8,11,14,17,20,23-octaone], with 0.01 to 0.1 µM.
